Consider 13 molecules from patent US20260022142A1, “MACROCYCLIC IMMUNOMODULATORS” (Bristol-Myers Squibb Company, priority 2022, published 2026).

pIC50: −log10 of the molar value. Bridge positions count the residues as written; N and C are the ends. Square brackets hold non-standard residues; d marks the D form. Peptide text beside a SMILES is read from it. * marks the point of attachment. Phe(4-COOH) = N[C@@H](Cc1ccc(C(=O)O)cc1)C(=O)O; Bip = N[C@@H](Cc1ccc(-c2ccccc2)cc1)C(=O)O; Phe(3-Me) = Cc1cccc(C[C@H](N)C(=O)O)c1; 4Pal = N[C@@H](Cc1ccncc1)C(=O)O; Cha = N[C@@H](CC1CCCCC1)C(=O)O; Cit = NC(=O)NCCC[C@H](N)C(=O)O; Carboxymethyl = O=C(O)C*; Orn = NCCC[C@H](N)C(=O)O; Aun = NCCCCCCCCCCC(=O)O; Dab = NCC[C@H](N)C(=O)O; Dap = NC[C@H](N)C(=O)O; AEEA = NCCOCCOCC(=O)O

This test deals with T1, PD-1/PD-L1 interaction (PE-labeled human PD-L1-Ig binding to Jurkat cell line over-expressing human PD-1) (Homo sapiens, UniProt Q15116).
T1 construct: expressed in transfected cells; host or cells: Jurkat
T1 sequence (Q15116 25-288): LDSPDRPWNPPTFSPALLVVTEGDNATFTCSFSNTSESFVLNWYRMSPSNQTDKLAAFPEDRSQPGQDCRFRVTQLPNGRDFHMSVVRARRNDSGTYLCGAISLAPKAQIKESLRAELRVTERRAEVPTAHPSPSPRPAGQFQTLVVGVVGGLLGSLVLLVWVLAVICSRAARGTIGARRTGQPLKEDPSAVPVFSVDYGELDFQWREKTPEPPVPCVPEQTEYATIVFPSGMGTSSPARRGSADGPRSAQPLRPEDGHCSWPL
Description: Jurkat-PD-1 Cell Binding High-Content Screening Assay (CBA). It counts as cell-based. The conditions noted are these: Jurkat cell line over-expressing human PD-1; PE-labeled PD-L1-Ig 20 nM final; read-out: Jurkat hPD1-PDL1 IC50. Put shortly:
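Jurkat cells over-expressing human PD-1 (8×10^3 per well, DMEM/10% FCS) preincubated with compound 2 h at 37° C, then PE-labeled human PD-L1-Ig (20 nM final) added for 1 h. Cells fixed with paraformaldehyde, Hoechst-stained, and bound fluorescence quantified by high-content imaging.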
With `Cc1cccc(C[C@@H]2NC(=O)[C@H](CC(=O)O)NC(=O)[C@H](Cc3ccc(OCC(=O)O)cc3)NC(=O)[C@H](CN)NC(=O)CSC[C@@H](C(=O)N[C@@H](CCC(=O)O)C(=O)NCCOCCOCC(=O)NCCCCCCCCCCC(=O)O)NC(=O)[C@H]([C@@H](C)O)NC(=O)[C@H](C(C)C)NC(=O)[C@H](CC3CCCCC3)NC(=O)[C@H](CCN)NC(=O)[C@@H](CC(C)C)NC(=O)[C@H](CCCN)NC(=O)[C@H](CCCNC(N)=O)NC(=O)[C@H](Cc3ccc(-c4ccccc4)cc3)NC(=O)[C@H](C(C)C)NC2=O)c1` [Compound 1037] ({CH2CO}-[Dap]Y(Carboxymethyl)D[Phe(3-Me)]V[Bip][Cit][Orn][dL][Dab][Cha]VTCE[AEEA][Aun]-OH; thioether N-14), the pIC50 was 8.12.

In the case of `Cc1cccc(C[C@@H]2NC(=O)[C@H](CC(=O)O)NC(=O)[C@H](Cc3ccc(OCC(=O)O)cc3)NC(=O)[C@H](CN)NC(=O)CSC[C@@H](C(=O)NCCOCCOCC(=O)NCCCCCCCCCCC(=O)O)NC(=O)[C@H]([C@@H](C)O)NC(=O)[C@H](C(C)C)NC(=O)[C@H](CC3CCCCC3)NC(=O)[C@H](CCN)NC(=O)[C@@H](CC(C)C)NC(=O)[C@H](CCCN)NC(=O)[C@H](CCCNC(N)=O)NC(=O)[C@H](Cc3ccc(-c4ccccc4)cc3)NC(=O)[C@H](C(C)C)NC2=O)c1` [Compound 1038] ({CH2CO}-[Dap]Y(Carboxymethyl)D[Phe(3-Me)]V[Bip][Cit][Orn][dL][Dab][Cha]VTC[AEEA][Aun]-OH; thioether N-14), the pIC50 was 7.68.

For the molecule `CC[C@H](C)[C@@H]1NC(=O)[C@H](Cc2ccc(-c3ccccc3)cc2)NC(=O)[C@H](C(C)C)NC(=O)[C@H](Cc2cccc(C)c2)NC(=O)[C@H](CC(=O)O)NC(=O)[C@H](Cc2ccc(C(=O)O)cc2)NC(=O)[C@H](Cc2ccncc2)NC(=O)CSC[C@@H](C(=O)N[C@@H](C)C(=O)N[C@@H](CCC(=O)O)C(=O)NCCCCCCCCCCC(=O)O)NC(=O)[C@H]([C@@H](C)O)NC(=O)[C@H](C(C)C)NC(=O)[C@H](CC2CCCCC2)NC(=O)[C@H](CCN)NC(=O)[C@@H](CC(C)C)NC(=O)[C@H](CCCN)NC1=O` [Compound 1039], the pIC50 was 7.92.

Take `CC[C@H](C)[C@@H]1NC(=O)[C@H](Cc2ccc(-c3ccccc3)cc2)NC(=O)[C@H](C(C)C)NC(=O)[C@H](Cc2cccc(C)c2)NC(=O)[C@H](CC(=O)O)NC(=O)[C@H](Cc2ccc(C(=O)O)cc2)NC(=O)[C@H](Cc2ccncc2)NC(=O)CSC[C@@H](C(=O)N[C@@H](CCC(=O)O)C(=O)NCCCCCCCCCCC(=O)O)NC(=O)[C@H]([C@@H](C)O)NC(=O)[C@H](C(C)C)NC(=O)[C@H](CC2CCCCC2)NC(=O)[C@H](CCN)NC(=O)[C@@H](CC(C)C)NC(=O)[C@H](CCCN)NC1=O` [Compound 1040] ({CH2CO}-[4Pal][Phe(4-COOH)]D[Phe(3-Me)]V[Bip]I[Orn][dL][Dab][Cha]VTCE[Aun]-OH; thioether N-14): the negative logarithm of the IC50 (pIC50) is 7.28.

On to `CC[C@H](C)[C@@H]1NC(=O)[C@H](Cc2ccc(-c3ccccc3)cc2)NC(=O)[C@H](C(C)C)NC(=O)[C@H](Cc2cccc(C)c2)NC(=O)[C@H](CC(=O)O)NC(=O)[C@H](Cc2ccc(C(=O)O)cc2)NC(=O)[C@H](Cc2ccncc2)NC(=O)CSC[C@@H](C(=O)N[C@@H](C)C(=O)N[C@@H](CCC(=O)O)C(=O)NCC(=O)NCCCCCCCCCCC(=O)O)NC(=O)[C@H]([C@@H](C)O)NC(=O)[C@H](C(C)C)NC(=O)[C@H](CC2CCCCC2)NC(=O)[C@H](CCN)NC(=O)[C@@H](CC(C)C)NC(=O)[C@H](CCCN)NC1=O` [Compound 1041], for which the pIC50 is 7.82.

In the case of `CC[C@H](C)[C@@H]1NC(=O)[C@H](Cc2ccc(-c3ccccc3)cc2)NC(=O)[C@H](C(C)C)NC(=O)[C@H](Cc2cccc(C)c2)NC(=O)[C@H](CC(=O)O)NC(=O)[C@H](Cc2ccc(C(=O)O)cc2)NC(=O)[C@H](Cc2ccncc2)NC(=O)CSC[C@@H](C(=O)N[C@@H](C)C(=O)N[C@@H](CC(=O)O)C(=O)NCC(=O)NCCCCCCCCCCC(=O)O)NC(=O)[C@H]([C@@H](C)O)NC(=O)[C@H](C(C)C)NC(=O)[C@H](CC2CCCCC2)NC(=O)[C@H](CCN)NC(=O)[C@@H](CC(C)C)NC(=O)[C@H](CCCN)NC1=O` [Compound 1042], the pIC50 is 7.82.

As to `CC[C@H](C)[C@@H]1NC(=O)[C@H](Cc2ccc(-c3ccccc3)cc2)NC(=O)[C@H](C(C)C)NC(=O)[C@H](Cc2cccc(C)c2)NC(=O)[C@H](CC(=O)O)NC(=O)[C@H](Cc2ccc(C(=O)O)cc2)NC(=O)[C@H](Cc2ccncc2)NC(=O)CSC[C@@H](C(=O)N[C@@H](CC(=O)O)C(=O)NCCCCCCCCCCC(=O)O)NC(=O)[C@H]([C@@H](C)O)NC(=O)[C@H](C(C)C)NC(=O)[C@H](CC2CCCCC2)NC(=O)[C@H](CCN)NC(=O)[C@@H](CC(C)C)NC(=O)[C@H](CCCN)NC1=O` [Compound 1043] ({CH2CO}-[4Pal][Phe(4-COOH)]D[Phe(3-Me)]V[Bip]I[Orn][dL][Dab][Cha]VTCD[Aun]-OH; thioether N-14), the pIC50 was 7.81.

Consider `Cc1cccc(C[C@@H]2NC(=O)[C@H](CC(=O)O)NC(=O)[C@H](Cc3ccc(OCC(=O)O)cc3)NC(=O)[C@H](CN)NC(=O)CSC[C@@H](C(=O)N[C@@H](C)C(=O)N[C@@H](CCC(=O)O)C(=O)NCCCCCCCCCCC(=O)O)NC(=O)[C@H]([C@@H](C)O)NC(=O)[C@H](C(C)C)NC(=O)[C@H](CC3CCCCC3)NC(=O)[C@H](CCN)NC(=O)[C@@H](CC(C)C)NC(=O)[C@H](CCCN)NC(=O)[C@H](CCC(=O)O)NC(=O)[C@H](Cc3ccc(-c4ccccc4)cc3)NC(=O)[C@H](C(C)C)NC2=O)c1` [Compound 1044] ({CH2CO}-[Dap]Y(Carboxymethyl)D[Phe(3-Me)]V[Bip]E[Orn][dL][Dab][Cha]VTCAE[Aun]-OH; thioether N-14), for which the pIC50 is 8.21.

As for `Cc1cccc(C[C@@H]2NC(=O)[C@H](CC(=O)O)NC(=O)[C@H](Cc3ccc(OCC(=O)O)cc3)NC(=O)[C@H](CN)NC(=O)CSC[C@@H](C(=O)N[C@@H](CCC(=O)O)C(=O)NCCCCCCCCCCC(=O)O)NC(=O)[C@H]([C@@H](C)O)NC(=O)[C@H](C(C)C)NC(=O)[C@H](CC3CCCCC3)NC(=O)[C@H](CCN)NC(=O)[C@@H](CC(C)C)NC(=O)[C@H](CCCN)NC(=O)[C@H](CCC(=O)O)NC(=O)[C@H](Cc3ccc(-c4ccccc4)cc3)NC(=O)[C@H](C(C)C)NC2=O)c1` [Compound 1045] ({CH2CO}-[Dap]Y(Carboxymethyl)D[Phe(3-Me)]V[Bip]E[Orn][dL][Dab][Cha]VTCE[Aun]-OH; thioether N-14), the pIC50 is 7.96.

Consider `Cc1cccc(C[C@@H]2NC(=O)[C@H](CC(=O)O)NC(=O)[C@H](Cc3ccc(OCC(=O)O)cc3)NC(=O)[C@H](CN)NC(=O)CSC[C@@H](C(=O)N[C@@H](C)C(=O)N[C@@H](CCC(=O)O)C(=O)NCC(=O)NCCCCCCCCCCC(=O)O)NC(=O)[C@H]([C@@H](C)O)NC(=O)[C@H](C(C)C)NC(=O)[C@H](CC3CCCCC3)NC(=O)[C@H](CCN)NC(=O)[C@@H](CC(C)C)NC(=O)[C@H](CCCN)NC(=O)[C@H](CCC(=O)O)NC(=O)[C@H](Cc3ccc(-c4ccccc4)cc3)NC(=O)[C@H](C(C)C)NC2=O)c1` [Compound 1046] ({CH2CO}-[Dap]Y(Carboxymethyl)D[Phe(3-Me)]V[Bip]E[Orn][dL][Dab][Cha]VTCAEG[Aun]-OH; thioether N-14), for which the pIC50 was 7.79.

As for `Cc1cccc(C[C@@H]2NC(=O)[C@H](CC(=O)O)NC(=O)[C@H](Cc3ccc(OCC(=O)O)cc3)NC(=O)[C@H](CN)NC(=O)CSC[C@@H](C(=O)N[C@@H](C)C(=O)N[C@@H](CC(=O)O)C(=O)NCC(=O)NCCCCCCCCCCC(=O)O)NC(=O)[C@H]([C@@H](C)O)NC(=O)[C@H](C(C)C)NC(=O)[C@H](CC3CCCCC3)NC(=O)[C@H](CCN)NC(=O)[C@@H](CC(C)C)NC(=O)[C@H](CCCN)NC(=O)[C@H](CCC(=O)O)NC(=O)[C@H](Cc3ccc(-c4ccccc4)cc3)NC(=O)[C@H](C(C)C)NC2=O)c1` [Compound 1047] ({CH2CO}-[Dap]Y(Carboxymethyl)D[Phe(3-Me)]V[Bip]E[Orn][dL][Dab][Cha]VTCADG[Aun]-OH; thioether N-14), the pIC50 was 7.88.

Consider `Cc1cccc(C[C@@H]2NC(=O)[C@H](CC(=O)O)NC(=O)[C@H](Cc3ccc(OCC(=O)O)cc3)NC(=O)[C@H](CN)NC(=O)CSC[C@@H](C(=O)N[C@@H](CC(=O)O)C(=O)NCCCCCCCCCCC(=O)O)NC(=O)[C@H]([C@@H](C)O)NC(=O)[C@H](C(C)C)NC(=O)[C@H](CC3CCCCC3)NC(=O)[C@H](CCN)NC(=O)[C@@H](CC(C)C)NC(=O)[C@H](CCCN)NC(=O)[C@H](CCC(=O)O)NC(=O)[C@H](Cc3ccc(-c4ccccc4)cc3)NC(=O)[C@H](C(C)C)NC2=O)c1` [Compound 1048] ({CH2CO}-[Dap]Y(Carboxymethyl)D[Phe(3-Me)]V[Bip]E[Orn][dL][Dab][Cha]VTCD[Aun]-OH; thioether N-14), for which the pIC50 is 7.74.

For `Cc1cccc(C[C@@H]2NC(=O)[C@H](CC(=O)O)NC(=O)[C@H](Cc3ccc(OCC(=O)O)cc3)NC(=O)[C@H](CN)NC(=O)CSC[C@@H](C(=O)N[C@@H](C)C(=O)N[C@@H](CC(=O)O)C(=O)NCCCCCCCCCCC(=O)O)NC(=O)[C@H]([C@@H](C)O)NC(=O)[C@H](C(C)C)NC(=O)[C@H](CC3CCCCC3)NC(=O)[C@H](CCN)NC(=O)[C@@H](CC(C)C)NC(=O)[C@H](CCCN)NC(=O)[C@H](CCC(=O)O)NC(=O)[C@H](Cc3ccc(-c4ccccc4)cc3)NC(=O)[C@H](C(C)C)NC2=O)c1` [Compound 1049] ({CH2CO}-[Dap]Y(Carboxymethyl)D[Phe(3-Me)]V[Bip]E[Orn][dL][Dab][Cha]VTCAD[Aun]-OH; thioether N-14), the negative-log IC50 (pIC50) is 7.82.

The pIC50 is −log10 of the IC50, conventionally taken in molar units.
